Each structure is given as a SMILES string. Values joined by “and” are separate entries in the source; they are usually repeats but may differ in a detail not shown here. Identical values can stand only once.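 48-hour exposure; five concentrations; linearly interpolated endpoints. Here, GI50 denotes the concentration required for 50% inhibition of growth. TGI: concentration producing complete growth inhibition.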 Bounds are passed on as bounds.

This note sets out measurements from PubChem BioAssay (NCI).

In this assay the test system is MDA-MB-468 breast. In words: NCI-60 cell line screen, 48 h.
In the case of `Nc1ncc(-c2ccc3ncnc(N4CCc5ccc(Cl)cc54)c3c2)cn1`, the GI50 was 479 nM and the TGI was found to be 2080 nM.

On to `CCOC(=O)c1ccc2c(c1)nc(-c1ccc(Cl)cc1)n2-c1cc(C(C)(C)C)[nH]n1`, for which the GI50 was 2120 nM and the TGI turned out to be 8180 nM.

Consider `COc1cc(/C=C2\CN(S(=O)(=O)c3ccc(C)cc3)C/C(=C\c3cc(CN4CCOCC4)c(O)c(OC)c3)C2=O)cc(CN2CCOCC2)c1O`, for which the GI50 was 4050 nM and the TGI was more than 100000 nM.

Turning to `CS(=O)(=O)c1ccc(Oc2cc(F)cc(C#N)c2)c2c1[C@H](O)[C@H](F)[C@H]2F`, the GI50 was more than 100000 nM and the TGI is more than 100000 nM.

On to `O=C1Nc2ccccc2/C1=C/C(=O)c1ccc(N2CCCC2)cc1`, for which the GI50 was 1960 nM and the TGI came to 6590 nM.

As for `Cc1ccc(C(=Nc2ccccc2)N=P(c2ccccc2)(c2ccccc2)c2ccccc2)cc1`, the GI50 is 944 nM and the TGI was found to be 4300 nM.

For the molecule `Cc1ccc(/C=C2\COc3ccc(O)c(O)c3C2=O)cc1`, the GI50 is 907 nM and the TGI amounted to 2990 nM.

As to `Nc1ccn(C2OC(CO)C(O)C2(F)F)c(=O)n1` (stereo not given), the GI50 was 18 nM and the TGI was determined as 55.8 nM.

`COc1ccc(O)c2c(=O)c3c(OC)cc4c(c3oc12)[C@@H]1C=CO[C@@H]1O4`: the GI50 is 131 nM and the TGI was determined as 447 nM.

Take `CCN(Cc1cccnc1)c1ccc(CO)c(Cl)c1`: the GI50 was 29 nM and the TGI is 104 nM.

In the case of `OCCCc1n(Cc2ccc3ccccc3c2)c2ccccc2[n+]1Cc1ccc2ccccc2c1`, the GI50 was 291 nM and the TGI was 1370 nM.

With `CC12OC(CC(O)C1O)n1c3ccccc3c3c4c(c5c6ccccc6n2c5c31)C(=O)N(CCN1CCCC1)C4=O` (stereo not given), the GI50 was 1000 nM and the TGI was 3110 nM.

On to `CC(C)Sc1nc(Nc2ccc(S(N)(=O)=O)cc2)c(C#N)c(-c2ccc(F)cc2)n1`, for which the GI50 was 4590 nM and the TGI came to 18000 nM.

Consider `CS(=O)(=O)Nc1ccc(Nc2c3ccccc3nc3cc([N+](=O)[O-])ccc23)cc1`, for which the GI50 was 304 nM and the TGI is 2020 nM.

For the molecule `COc1cc2cc(c1Cl)N(C)C(=O)C[C@H](OC(=O)[C@H](C)N(C)C(=O)CCS)C[C@]1(C)O[C@H]1[C@H](C)[C@@H]1C[C@@](O)(NC(=O)O1)[C@H](OC)/C=C/C=C(\C)C2`, the GI50 was less than 5 nM and the TGI is less than 5 nM.

As for `CCN(Cc1ccccc1F)c1ccc(CO)c(Cl)c1`, the TGI amounted to 13 nM.

As for `COc1ccc([As]=[As]c2ccc(OC)c(NCS(=O)(=O)O)c2)cc1NCS(=O)(=O)O` (stereo not given), the GI50 was 1290 nM and the TGI was determined as 3060 nM.

As for `CCOC(=O)C1=C(C)N=C2SC=C(c3ccccc3)N2[C@H]1c1cn[nH]c1-c1ccc(Cl)cc1`, the GI50 is 3540 nM and the TGI turned out to be 16600 nM.

Take `O=C(CI)OCC(COC(=O)CI)OC(=O)CI`: the GI50 was 2340 nM and the TGI worked out at 7910 nM.

For the molecule `COC1C(O)CC(OC2CC(OC3CC(O[C@@H]4C(=O)c5c(cc6cc(OC7CC(OC8CC(O)C(O)C(C)O8)C(O)C(C)O7)c(C)c(O)c6c5O)CC4[C@H](OC)C(=O)C(C)=O)OC(C)C3O)OC(C)C2O)OC1C` (stereo not given in full), the GI50 is 16.1 nM and the TGI was determined as 52.1 nM.

On to `O=C1c2ccccc2C(=O)c2c(Nc3ccc(CCO)cc3)ccc(O)c21`, for which the GI50 is 1430 nM and the TGI is 22800 nM.

With `CC(=O)OC[C@H]1OC(O)C=C[C@@H]1OC(C)=O` (stereo not given in full), the GI50 was 82500 nM and the TGI is 180000 nM.

In the case of `C/C(=N\NC(=O)c1ccc(C(C)(C)C)cc1)c1ccc(O)cc1O`, the GI50 is 1020 nM and the TGI was 5100 nM.

For the molecule `CC(C)Cc1ccc(C(C)C(=O)NCc2ccc(Cn3c(=O)sn(CCCCl)c3=O)cc2)cc1` (stereo not given), the GI50 is 1350 nM and the TGI was determined as 3010 nM.

`Fc1ccc(-c2nc(C(Cl)Cl)nc3cc(-c4ccccc4)nn23)cc1`: the GI50 is 2140 nM and the TGI came to 4950 nM.

Regarding `Cc1ccc2c(n1)C(=O)C(Cl)=C(Nc1cccc(C)c1C)C2=O`, the GI50 was 1530 nM and the TGI was found to be 3250 nM.

In the case of `CS(=O)(=O)Nc1cc(-c2ccc3ncc(C#N)c(Nc4cccc(Cl)c4F)c3c2)cnc1Cl`, the GI50 was 116 nM and the TGI was found to be 1390 nM.

Take `COc1cccc(C(=O)c2sc(Nc3ccc(N4CCN(C(C)C)CC4)cc3)nc2N)c1`: the GI50 was 1620 nM and the TGI worked out at 9220 nM.

Regarding `CCN(CC)c1ccc(C2=NN(C(C)=O)C(c3cc(OC)c(OC)c(OC)c3)C2)cc1` (stereo not given), the GI50 is 256 nM and the TGI was found to be 4100 nM.

In the case of `Cc1ccc(C(=O)Nc2ccc(CNCCN3CCOCC3)c(C(F)(F)F)c2)cc1C#Cc1cnc2cccnn12`, the GI50 is 2150 nM and the TGI worked out at 6190 nM.

In the case of `C#CCN(C)CCCOc1ccc(NC(=O)CCCCCCC(=O)NO)cc1Cl`, the GI50 was 853 nM and the TGI amounted to 4980 nM.

Turning to `Cc1nc2ccc(Nc3nc(Cl)nc(Nc4ccc(F)cc4)n3)cc2n1Cc1ccccc1`, the GI50 was 1860 nM and the TGI amounted to 3780 nM.

As to `COc1ccc(-c2nn(C(=O)NCCN(C)C)cc2-c2ccncc2)cc1Cl`, the GI50 was 1950 nM and the TGI is 11700 nM.

`COc1ccc(C(=O)/C=C/c2c(OC)cc(OC)cc2OC)c(OC)c1`: the GI50 is 1590 nM and the TGI was determined as 4660 nM.

In the case of `COc1ccc(-c2cc(=O)oc3ccc(Cl)cc23)cc1F`, the GI50 is 110 nM and 29.5 nM; the TGI is 644 nM and 97.9 nM.

In the case of `OCc1cn(Cc2ccc(Cl)cc2)c2ccccc12`, the GI50 was less than 10 nM.
